Measurements taken from patent publication US7220875B2, “Amino acid derived prodrugs of propofol, compositions and uses thereof” (priority 2003, dated 2007).

Assays:
[1] = Enzymatic cleavage of prodrugs in vitro, rat liver S9; type: in vitro ADME; details: Rat Liver S9 (0.5 mg/mL), substrate 2.0 μM, NADPH, 37° C.
Protocol: (§1) The stability of propofol prodrugs were evaluated in one or more in vitro systems using a variety of tissue preparations following methods known in the art. Tissues were obtained from commercial sources (e.g., Pel-Freez Biologicals, Rogers, Ark., or GenTest Corporation, Woburn, Mass.). Experimental conditions used for the in vitro studies are described in Table 1 below. Each preparation was incubated with test compound at 37° C. for one hour. Aliquots (50 μL) were removed at 0, 30, and 60 min and quenched with 0.1% trifluoroacetic acid in acetonitrile. Samples were then centrifuged and analyzed by LC/MS/MS (see Examples 59 and 60 below for method details). Stability of drug conjugates towards specific enzymes (e.g., peptidases, etc.) were also assessed in vitro by incubation with the purified enzyme: […]

[2] = Enzymatic cleavage of prodrugs in vitro, human plasma; type: in vitro ADME; details: substrate 2.0 μM, 37° C.
Protocol: as §1

[3] = Enzymatic cleavage of prodrugs in vitro, rat plasma; type: in vitro ADME; details: substrate 2.0 μM, 37° C.
Protocol: as §1

pancreatin = assay: Pancreatin stability; type: in vitro ADME, porcine; details: 1% (w/v) pancreatin, pH 7.5, conjugate 5 μM, 37° C.
Protocol: (§2) The stability of propofol prodrugs were evaluated in one or more in vitro systems using a variety of tissue preparations following methods known in the art. Tissues were obtained from commercial sources (e.g., Pel-Freez Biologicals, Rogers, Ark., or GenTest Corporation, Woburn, Mass.). Experimental conditions used for the in vitro studies are described in Table 1 below. Each preparation was incubated with test compound at 37° C. for one hour. Aliquots (50 μL) were removed at 0, 30, and 60 min and quenched with 0.1% trifluoroacetic acid in acetonitrile. Samples were then centrifuged and analyzed by LC/MS/MS (see Examples 59 and 60 below for method details). Stability of drug conjugates towards specific enzymes (e.g., peptidases, etc.) were also assessed in vitro by incubation with the purified enzyme:
Pancreatin Stability: Stability studies were conducted by incubating conjugate (5 μM) with 1% (w/v) pancreatin (Sigma, P-1625, from porcine pancreas) in 0.025 M Tris buffer containing 0.5 M NaCl (pH 7.5) at 37° C. for 60 min. The reaction was stopped by addition of 2 volumes of methanol. After centrifugation at 14,000 rpm for 10 min, the supernatant was removed and analyzed by LC/MS/MS.

[4] = Enzymatic cleavage of prodrugs in vitro, human liver S9; type: in vitro ADME; details: Human Liver S9 (0.5 mg/mL), substrate 2.0 μM, NADPH, 37° C.
Protocol: as §1

[5] = Caco-2 homogenate S9 stability; type: in vitro ADME; details: Caco-2 S9 (0.5 mg protein per mL), prodrug 5 μM, 37° C.
Protocol: as §2
Caco-2 Homogenate S9 Stability: Caco-2 cells were grown for 21 days prior to harvesting. Culture medium was removed and cell monolayers were rinsed and scraped off into ice-cold 10 mM sodium phosphate/0.15 M potassium chloride, pH 7.4. Cells were lysed by sonication at 4° C. using a probe sonicator. Lysed cells were then transferred into 1.5 mL centrifuge vials and centrifuged at 9000 g for 20 min at 4° C. The resulting supernatant (Caco-2 cell homogenate S9 fraction) was aliquoted into 0.5 mL vials and stored at −80° C. until used.
For stability studies, prodrug (5 μM) was incubated in Caco-2 homogenate S9 fraction (0.5 mg protein per mL) for 60 min at 37° C. Concentrations of intact prodrug and released propofol were determined at zero time and 60 minutes using LC/MS/MS.

[6] = rats; oral dosing; cited from earlier work
in vivo = details: male, Sprague-Dawley, rat, plasma, oral, 25 mg per kg body weight
Protocol: Propofol was administered as an intravenous bolus injection or by oral gavage to groups of four to six adult male Sprague-Dawley rats (weight approx 250 g) as solutions in PEG400, at doses of 10 mg per kg body weight (I.V.) or 25 mg per kg body weight (oral). Animals were fasted overnight before the study and for 4 hours post-dosing. Blood samples (1.0 mL) were obtained via a jugular vein cannula at intervals over 24 hours after oral dosing. Blood was quenched immediately using acetonitrile with 1% formic acid and then was frozen at −80° C. until analyzed.
Concentrations of propofol in plasma were determined using an API 4000 LC/MS/MS instrument equipped with an Agilent 1100 binary pump and an Agilent autosampler. The column was a Phenomenex Hydro-RP 4.6*50 mm column operating at room temperature. The mobile phases were 2 mM aqueous ammonium acetate (A) and 95% acetonitrile with 5 mM ammonium acetate (B). The gradient condition was: 5% B for 1 min, increasing to 90% B in 2.5 min and maintained for 2 min. 20 μL of sample was injected. A Turbo-IonSpray source was used, and propofol was detected in negative ion mode in Q1 at m/z=177. The peaks were integrated using Analyst 1.2 quantitation software.

Compound	% of Propofol Released from Propofol Prodrugs after 60 min. [1]	% of Propofol Released from Propofol Prodrugs after 60 min. [2]	% of Propofol Released from Propofol Prodrugs after 60 min. [3]	% of Propofol Released from Propofol Prodrugs after 60 min. (pancreatin)	% of Propofol Released from Propofol Prodrugs after 60 min. [4]	% of Propofol Released from Propofol Prodrugs after 60 min. [5]	administered drug undergoing first pass metabolism [6]	bioavailability (in vivo)
CC(C)c1cccc(C(C)C)c1OC(=O)OC[C@H](NC(=O)[C@H](C)N)C(=O)O [Compound 161, H-Ala-Ser(β-OC(O)OPropofol)-OH]	8%	2%	30%	8%	14%	20%	–	–
CC(C)c1cccc(C(C)C)c1OC(=O)CC[C@H](N)C(=O)N[C@@H](C)C(=O)O [Compound 138, H-Glu(OPropofol)-Ala-OH]	0%	44%	50%	9%	0%	3%	–	–
CSCC[C@H](N)C(=O)N[C@@H](CC(=O)Oc1c(C(C)C)cccc1C(C)C)C(=O)O [Compound 121, H-Met-Asp(OPropofol)-OH]	0%	3%	7%	0%	0%	0%	–	–
H-Asp-Asp(OCH2OPropofol)-OH [Compound 220]	–	1%	–	6%	0%	49%	–	–
CC(C)c1cccc(C(C)C)c1OC(=O)C[C@H](NC(=O)[C@H](C)N)C(=O)O [Compound 107, H-Ala-Asp(OPropofol)-OH]	6%	1%	3%	7%	5%	4%	–	–
CC(C)c1cccc(C(C)C)c1OC(=O)C[C@H](NC(=O)[C@@H](N)Cc1ccc(O)cc1)C(=O)O [Compound 122, H-Tyr-Asp(OPropofol)-OH]	9%	0%	2%	10%	6%	0%	–	–
CC(C)c1cccc(C(C)C)c1O [Propofol, 2,6-diisopropylphenol]	–	–	–	–	–	–	approximately 90%	0.23%
CC(C)c1cccc(C(C)C)c1OC(=O)CC[C@H](NC(=O)[C@@H](N)CC(N)=O)C(=O)O [Compound 124, H-Asn-Glu(OPropofol)-OH]	0%	2%	65%	4%	0%	0%	–	–
H-Gly-Tyr-OPropofol [Compound 192]	60%	15%	15%	0%	60%	41%	–	–
